Values quoted from earlier work, collected in US9259405B2, “Method of treating functional somatic syndromes with combination of famciclovir and diclofenac” (INNOVATIVE MED CONCEPTS, LLC, priority 2012, dated 2016).

Test system: fibromyalgia patients
Conditions: J. Rheumatology (2004) 31, 783-784

CC(C)[C@H](N)C(=O)OCCOCn1cnc2c(=O)[nH]c(N)nc21 [valacyclovir]
treatment of fibromyalgia patients: not successful
